{"source": "paper PMC8617031", "about": "“Development of a BCL-xL and BCL-2 dual degrader with improved anti-leukemic activity,” (Nature Communications, 2021)", "key": {"BCL2L1 mRNA": {"tested_on": "BCL2L1 mRNA", "assay": "RT-qPCR of BCL2L1 mRNA in 293T cells", "format": "cell-based, human", "conditions": "for BCL2L1 relative mRNA level: single replicate, relative to 0 uM control, Supplementary Fig. 7a", "procedure": "Total RNA was extracted using RNeasy Plus Mini Kit (Qiagen, Cat. No. 74134). Reverse transcription was carried out by using High Capacity cDNA Reverse Transcription Kit (Invitrogen). Quantitative PCR (qPCR) was performed using an QuantStudioTM 5 Real-Time PCR System with SYBR Green. […] The PCR amplification protocol was initiated at 50 °C for 2 min followed by 3 min at 95 °C and 40 PCR cycles consisting of 5 s at 95 °C followed by 60 °C for 30 s. All samples were tested with the reference gene GAPDH for data normalization to correct for variations in RNA quality and quantity. The specificity of amplification of targets with high Ct values was confirmed by analysis of the temperature dissociation curves. Primers used for measuring gene transcriptional level: GAPDH primers (forward [NT] and reverse [NT]) were described previously. BCL2L1 primers are forward [NT] and reverse [NT]; BCL2 primers are forward [NT] and reverse[NT]. Supplementary Fig. 8. […] Hela cells were treated with different concentrations 753b for 16 h with or without the pan-caspase inhibitor QVD pretreatment. Representative immunoblots are shown in c-e. β-actin was used as an equal loading control in all immunoblot analyses. Source data are provided as a Source Data file."}, "[1]": {"tested_on": "Flag-BCL-2 (WT and lysine mutants)", "assay": "Degradation of Flag-BCL-2 WT and lysine mutants in transfected 293T cells", "format": "cell-based, human", "conditions": "753b-treated 293T, DMSO = 100, Fig. 5b", "procedure": "Cells were collected, washed once with ice-cold phosphate-buffered saline, pH 7.2 (PBS, cat. no. 20012027; Thermo Fisher Scientific) and lysed in RIPA lysis buffer (Cat. No. BP-115DG, Boston Bio Products, Ashland, MA, USA) supplemented with protease and phosphatase inhibitor cocktails (Cat. No. PPC1010, Sigma-Aldrich, St. Louis, MO, USA) through sonication. The samples were centrifuged at 14,000 r.p.m. for 5 min and the supernatants were transferred into a new tube. The protein concentration in the supernatants was determined using the Pierce BCA protein Assay kit (cat. no. 23225, Thermo Fisher Scientific). The protein concentration was normalized, and the samples were reduced in 4× Laemmli’s SDS-sample buffer (cat. no. BP-110R, Boston Bio Products) and denatured at 95 °C for 5 min. An equal amount of protein samples (20–40 μg per lane) were resolved using precast 4–20% Tris-glycine gels (Mini-PROTEAN TGX, cat. no. 456–1094, Bio-Rad), and resolved proteins were transferred onto 0.2-µm pore size polyvinylidene difluoride (PVDF) blotting membranes (cat. no. LC2002, Thermo Fisher Scientific) using mini trans-blot electrophoretic transfer cell (Bio-Rad). The membranes were blocked with non-fat dry milk (5% wt/vol) in 1× Tris-buffered saline-Tween-20 (TBST, cat. no. J77500, Affymetrix) for 1 h at room temperature, and were subsequently probed with primary antibodies at a predetermined optimal concentration in non-fat dry milk (5% wt/vol in TBST) overnight at 4 °C. The membranes were washed three times (5 min each) in TBST and then incubated with horse radish peroxidase (HRP)-conjugated secondary antibodies for 1 h at room temperature. Following sufficient washing with TBST, the membranes were exposed with chemiluminescent HRP substrate (cat. no. WBKLS0500, MilliporeSigma), and the signal was detected using the ChemiDoc MP Imaging System (Bio-Rad) and quantified using the ImageJ (v1.53a) software from NIH.\nPlasmids were purified on miniprep columns according to the manufacturer’s protocol (Cat. No. 27106 Qiagen, Germantown, MD, USA). The construction of Flag-BCL-xL (pDL2009) and Flag-BCL-xL-K-ko (pDL2129) were described previously. Flag-BCL-2 was a gift from Clark Distelhorst (Addgene plasmid # 18003, Watertown, MA, USA). Plasmids Flag-BCL-xL-K16-only, Flag-BCL-xL-K20-only, Flag-BCL-xL-K157-only, Flag-BCL-xL-K-ko-R34K, Flag-BCL-xL-K-ko-R102K, Flag-BCL-xL-K-ko-R132K, Flag-BCL-xL-K-ko-G186K, Flag-BCL-2-K17R, Flag-BCL-2-K22R, and Flag-BCL-2-K17/22R were constructed by using Q5® Site-Directed Mutagenesis Kit (Cat. No. E0554S, NEB, Ipswich, MA, USA) and the following primer sets. Flag-BCL-xL-K-ko (pDL2129) or Flag-BCL-2 was used as the template. […]"}, "BCL-xL": {"target": "T1, BCL-xL (Homo sapiens, UniProt Q07817)", "T1 construct": "endogenous in cells", "T1 sequence (Q07817 whole entry)": "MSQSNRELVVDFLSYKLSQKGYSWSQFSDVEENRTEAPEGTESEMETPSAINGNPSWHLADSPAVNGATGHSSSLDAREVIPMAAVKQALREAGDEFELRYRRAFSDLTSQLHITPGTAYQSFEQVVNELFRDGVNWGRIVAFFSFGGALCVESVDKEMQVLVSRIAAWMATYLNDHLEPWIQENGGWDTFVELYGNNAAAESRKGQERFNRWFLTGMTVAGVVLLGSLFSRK", "assay": "BCL-xL degradation by western blot in human platelets", "format": "cell-based", "conditions": "Supplementary Fig. 12a", "procedure": "Cells were collected, washed once with ice-cold phosphate-buffered saline, pH 7.2 (PBS, cat. no. 20012027; Thermo Fisher Scientific) and lysed in RIPA lysis buffer (Cat. No. BP-115DG, Boston Bio Products, Ashland, MA, USA) supplemented with protease and phosphatase inhibitor cocktails (Cat. No. PPC1010, Sigma-Aldrich, St. Louis, MO, USA) through sonication. The samples were centrifuged at 14,000 r.p.m. for 5 min and the supernatants were transferred into a new tube. The protein concentration in the supernatants was determined using the Pierce BCA protein Assay kit (cat. no. 23225, Thermo Fisher Scientific). The protein concentration was normalized, and the samples were reduced in 4× Laemmli’s SDS-sample buffer (cat. no. BP-110R, Boston Bio Products) and denatured at 95 °C for 5 min. […] Following sufficient washing with TBST, the membranes were exposed with chemiluminescent HRP substrate (cat. no. WBKLS0500, MilliporeSigma), and the signal was detected using the ChemiDoc MP Imaging System (Bio-Rad) and quantified using the ImageJ (v1.53a) software from NIH. […]"}}, "note": "Where “and” joins values, the source holds several entries; their conditions need not be identical. Equal values may be shown once."}
{"compound": "Cc1ncsc1-c1ccc([C@H](C)NC(=O)[C@@H]2C[C@@H](O)CN2C(=O)[C@@H](NC(=O)CCCCCCC(=O)N2CCN(C[C@]3(C)CCC(c4ccc(Cl)cc4)=C(CN4CCN(c5ccc(C(=O)NS(=O)(=O)c6ccc(N[C@H](CCN7CCOCC7)CSc7ccccc7)c(S(=O)(=O)C(F)(F)F)c6)cc5)CC4)C3)CC2)C(C)(C)C)cc1", "note": "[753b]", "values": [{"measurement": "mRNA level of BCL2L1 (in words)", "setting": "BCL2L1 mRNA; 293T cells, 16 h, qPCR", "value": "no significant changes"}, {"measurement": "BCL2L1 relative mRNA level", "setting": "BCL2L1 mRNA; Conc 0.01 uM", "value": "1.14 and 1.075 and 1.07"}, {"measurement": "BCL2L1 relative mRNA level", "setting": "BCL2L1 mRNA; Conc 0.03 uM", "value": "0.9425 and 1.0957 and 1.098"}, {"measurement": "BCL2L1 relative mRNA level", "setting": "BCL2L1 mRNA; Conc 0.1 uM", "value": "1.074 and 0.5752 and 1.058"}, {"measurement": "BCL2L1 relative mRNA level", "setting": "BCL2L1 mRNA; Conc 0.3 uM", "value": "1.107 and 0.8812 and 1.122"}, {"measurement": "BCL2L1 relative mRNA level", "setting": "BCL2L1 mRNA; Conc 1 uM", "value": "0.4863 and 0.4646 and 0.4492"}, {"measurement": "relative Flag-BCL-2 protein content", "setting": "[1]; K17/22R mutant", "value": "87 and 104 and 94"}, {"measurement": "relative Flag-BCL-2 protein content", "setting": "[1]; K17R mutant", "value": "83 and 90 and 96"}, {"measurement": "relative Flag-BCL-2 protein content", "setting": "[1]; K22R mutant", "value": "38 and 28 and 35"}, {"measurement": "relative Flag-BCL-2 protein content", "setting": "[1]; WT Flag-BCL-2, 3 replicates", "value": "8 and 16 and 27"}, {"measurement": "BCL-xL degradation in human platelets (in words)", "setting": "BCL-xL", "value": "failed to induce BCL-xL degradation in human platelets"}]}
